Measurements published in ChEMBL document CHEMBL3039007, “Structure-based identification of OATP1B1/3 inhibitors” (Mol Pharmacol, 2013).

target: T1, Solute carrier organic anion transporter family member 1B1 (Homo sapiens, UniProt Q9Y6L6); conditions: chinese hamster, cho, 10 µM
T1 sequence (Q9Y6L6 whole entry): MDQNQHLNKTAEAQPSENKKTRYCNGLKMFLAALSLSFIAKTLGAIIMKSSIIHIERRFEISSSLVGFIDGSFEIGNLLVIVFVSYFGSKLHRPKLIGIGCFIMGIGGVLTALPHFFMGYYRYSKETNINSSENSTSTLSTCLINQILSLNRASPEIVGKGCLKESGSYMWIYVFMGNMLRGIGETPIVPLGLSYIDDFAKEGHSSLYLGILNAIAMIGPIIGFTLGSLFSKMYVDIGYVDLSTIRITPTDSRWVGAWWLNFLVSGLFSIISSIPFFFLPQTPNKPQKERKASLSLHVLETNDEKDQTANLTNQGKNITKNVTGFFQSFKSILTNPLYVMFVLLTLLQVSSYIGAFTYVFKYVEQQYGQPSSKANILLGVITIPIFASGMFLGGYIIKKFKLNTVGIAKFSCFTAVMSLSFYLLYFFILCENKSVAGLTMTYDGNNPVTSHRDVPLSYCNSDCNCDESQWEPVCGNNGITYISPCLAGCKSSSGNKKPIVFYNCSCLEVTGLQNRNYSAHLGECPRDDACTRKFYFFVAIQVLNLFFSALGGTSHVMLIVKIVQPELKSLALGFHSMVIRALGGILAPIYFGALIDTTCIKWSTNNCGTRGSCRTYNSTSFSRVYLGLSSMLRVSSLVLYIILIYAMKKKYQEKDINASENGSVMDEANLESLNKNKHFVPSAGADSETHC

| SMILES | residual activity |
| --- | --- |
| O=C(O)c1cccc(O)c1O [2,3-DIHYDROXYBENZOIC ACID] | 94.43% |
| Cl.N/C(=N\C(=O)c1nc(Cl)c(N)nc1N)NCc1ccccc1 [BENZAMIL HYDROCHLORIDE] | 93.84% |
| COC1=CC(=O)C=C(OC)C1=O [2,6-DIMETHOXYQUINONE] | 115.1% |
| O=C(O[C@@H]1Cc2c(O)cc(O)cc2O[C@@H]1c1cc(O)c(O)c(O)c1-c1c([C@H]2Oc3cc(O)cc(O)c3C[C@H]2OC(=O)c2cc(O)c(O)c(O)c2)cc(O)c(O)c1O)c1cc(O)c(O)c(O)c1 [THEASINENSIN A] | 61.1% |
| C[C@@H](CO)NC(=O)[C@@H]1C=C2c3cccc4[nH]cc(c34)C[C@H]2N(C)C1.O=C(O)/C=C\C(=O)O [ERGONOVINE MALEATE] | 69.31% |
| C[C@@H]1CC[C@H]2C(C)(C)[C@H]3C[C@@]12CC[C@@]3(C)O [CEDROL] | 119.8% |
| O=c1c(-c2ccc(O)cc2)coc2cc(O)ccc12 [DAIDZEIN] | 139.3% |
| CN1[C@@H]2CC[C@H]1C[C@@H](OC(=O)[C@H](CO)c1ccccc1)C2 [HYOSCYAMINE] | 97.76% |
| CCCCCCCCCCCCC[N+](C)(C)Cc1ccccc1.[Cl-] [BENZALKONIUM CHLORIDE] | 78.42% |
| CCCCC(CC)CN=C(N)N=C(N)NCCCCCCNC(N)=NC(N)=NCC(CC)CCCC.Cl (centres undefined) [ALEXIDINE HYDROCHLORIDE] | 69.95% |

target: T2, Solute carrier organic anion transporter family member 1B3 (Homo sapiens, UniProt Q9NPD5); conditions: chinese hamster, cho, 10 µM
T2 sequence (Q9NPD5 whole entry): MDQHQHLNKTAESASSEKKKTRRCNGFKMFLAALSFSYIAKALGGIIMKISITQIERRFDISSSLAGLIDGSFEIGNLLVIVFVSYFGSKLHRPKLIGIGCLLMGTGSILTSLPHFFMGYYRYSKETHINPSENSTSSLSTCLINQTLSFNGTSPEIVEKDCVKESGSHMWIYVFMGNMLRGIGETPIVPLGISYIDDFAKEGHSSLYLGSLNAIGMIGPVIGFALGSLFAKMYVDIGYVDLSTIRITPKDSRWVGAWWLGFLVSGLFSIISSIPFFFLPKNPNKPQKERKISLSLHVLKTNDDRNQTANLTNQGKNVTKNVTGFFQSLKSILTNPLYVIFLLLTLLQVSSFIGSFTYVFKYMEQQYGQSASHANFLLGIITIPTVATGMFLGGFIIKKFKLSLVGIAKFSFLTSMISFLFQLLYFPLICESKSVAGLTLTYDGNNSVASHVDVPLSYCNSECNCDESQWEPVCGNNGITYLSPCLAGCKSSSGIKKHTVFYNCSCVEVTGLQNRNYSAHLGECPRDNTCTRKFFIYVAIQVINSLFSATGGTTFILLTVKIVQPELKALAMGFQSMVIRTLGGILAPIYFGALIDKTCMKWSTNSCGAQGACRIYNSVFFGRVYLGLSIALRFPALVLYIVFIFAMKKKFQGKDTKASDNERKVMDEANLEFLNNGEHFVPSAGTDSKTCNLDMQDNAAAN

| SMILES | residual activity |
| --- | --- |
| O=C(O)c1cccc(O)c1O [2,3-DIHYDROXYBENZOIC ACID] | 84.74% |
| Cl.N/C(=N\C(=O)c1nc(Cl)c(N)nc1N)NCc1ccccc1 [BENZAMIL HYDROCHLORIDE] | 105% |
| COC1=CC(=O)C=C(OC)C1=O [2,6-DIMETHOXYQUINONE] | 101.9% |
| O=C(O[C@@H]1Cc2c(O)cc(O)cc2O[C@@H]1c1cc(O)c(O)c(O)c1-c1c([C@H]2Oc3cc(O)cc(O)c3C[C@H]2OC(=O)c2cc(O)c(O)c(O)c2)cc(O)c(O)c1O)c1cc(O)c(O)c(O)c1 [THEASINENSIN A] | 94.99% |
| C[C@@H](CO)NC(=O)[C@@H]1C=C2c3cccc4[nH]cc(c34)C[C@H]2N(C)C1.O=C(O)/C=C\C(=O)O [ERGONOVINE MALEATE] | 84.31% |
| C[C@@H]1CC[C@H]2C(C)(C)[C@H]3C[C@@]12CC[C@@]3(C)O [CEDROL] | 107.7% |
| O=c1c(-c2ccc(O)cc2)coc2cc(O)ccc12 [DAIDZEIN] | 103.8% |
| CCC(=O)O[C@H]1CC[C@H]2[C@@H]3CCc4cc(O)ccc4[C@H]3CC[C@]12C [ESTRADIOL PROPIONATE] | 111.9% |
| O=C(O)CCc1nc(-c2ccccc2)c(-c2ccccc2)o1 [OXAPROZIN] | 71.47% |
| CN(C)CCC=C1c2ccccc2COc2ccccc21.Cl [DOXEPIN HYDROCHLORIDE] | 101.8% |
| C[C@@H]1C[C@H]2[C@@H]3CCC4=CC(=O)C=C[C@]4(C)[C@@]3(F)[C@@H](O)C[C@]2(C)[C@@]1(O)C(=O)CO [DEXAMETHASONE] | 103.9% |
| CC(=O)OCC(=O)[C@H]1CC[C@H]2[C@@H]3CCC4=CC(=O)CC[C@]4(C)[C@H]3CC[C@]12C [DESOXYCORTICOSTERONE ACETATE] | 88.97% |
| CC1(C)OC(=O)NC1=O [DIMETHADIONE] | 109.1% |
| CCOC(=O)C1=C(C)NC(C)=C(C(=O)OC)C1c1cccc([N+](=O)[O-])c1 (centres undefined) [NITRENDIPINE] | 77.72% |
| COc1ccc2c(c1)O[C@H]1c3ccc(OC)cc3OC[C@@H]21 [HOMOPTEROCARPIN] | 109.3% |
| CC(=O)O[C@]1(C(C)=O)CC[C@H]2[C@@H]3C=C(Cl)C4=CC(=O)[C@@H]5C[C@@H]5[C@]4(C)[C@H]3CC[C@@]21C [CYPROTERONE ACETATE] | 103.2% |
| COc1ccc(C(=O)O[C@@H]2CC[C@@]3(C)[C@@H]4CC[C@H]5[C@]6(O)C[C@H](O)[C@@]7(O)[C@@H](CN8C[C@@H](C)CC[C@H]8[C@@]7(C)O)[C@]6(O)C[C@@]53O[C@@]42O)cc1OC.O=S(=O)(O)O | 91.85% |
| CC(=O)Oc1ccc2c(c1)CC[C@@H]1[C@@H]2CC[C@]2(C)[C@@H](O)CC[C@@H]12 [ESTRADIOL ACETATE] | 101% |
| CC(=O)Oc1ccccc1C(=O)O [ASPIRIN] | 96.37% |
| COc1ccc(-c2cc(=O)c3c(OC)c(OC)c(OC)c(OC)c3o2)cc1 [TANGERETIN] | 175% |
| COc1ccc(/C=C/c2cc(O)cc(O)c2)cc1 [RESVERATROL 4'-METHYL ETHER] | 135% |
| COc1ccc(-c2oc3cc(O[C@@H]4O[C@H](CO)[C@@H](O)[C@H](O)[C@H]4O)c(OC)c(O)c3c(=O)c2OC)cc1O [CENTAUREIN] | 91.7% |

| SMILES | residual activity |
| --- | --- |
| CC(=O)O[C@H]1C(=O)[C@@]2(C)[C@H]([C@H](OC(=O)c3ccccc3)[C@]3(O)C[C@H](OC(=O)[C@H](O)[C@@H](NC(=O)c4ccccc4)c4ccccc4)C(C)=C1C3(C)C)[C@]1(OC(C)=O)CO[C@@H]1C[C@@H]2O [PACLITAXEL] | 52.9% |
| CC(=O)[C@H]1CC[C@H]2[C@@H]3CC=C4C[C@@H](O)CC[C@]4(C)[C@H]3CC[C@]12C [PREGNENOLONE] | 110.4% |
| COc1cc(O)c2c(=O)cc(C)oc2c1CC=C(C)C [HETEROPEUCENIN, METHYL ETHER] | 110.3% |
| COc1cc(O)cc(/C=C/c2ccccc2)c1 [PINOSYLVIN METHYL ETHER] | 91.5% |
| CN[C@@H](C)[C@H](O)c1ccccc1.Cl [EPHEDRINE HYDROCHLORIDE] | 105.1% |
| CCCCC1C(=O)N(c2ccccc2)N(c2ccccc2)C1=O [PHENYLBUTAZONE] | 62.24% |
| O=c1[nH]c2ccccc2n1CCCN1CCC(n2c(=O)[nH]c3cc(Cl)ccc32)CC1 [DOMPERIDONE] | 111% |
| COc1ccc(-c2cc(=O)c3c(OC)c(OC)c(OC)c(OC)c3o2)cc1OC [NOBILETIN] | 133.3% |
| CN1C[C@H](CNC(=O)OCc2ccccc2)C[C@@H]2c3cccc4c3c(cn4C)C[C@H]21 [METERGOLINE] | 93.79% |
| CC/C(=C(/CC)c1ccc(O)cc1)c1ccc(O)cc1 [DIETHYLSTILBESTROL] | 45.56% |
| CC(=O)Oc1ccc2c(c1)CC[C@@H]1[C@@H]2CC[C@]2(C)[C@@H](OC(C)=O)CC[C@@H]12 | 113.7% |
| C=C1CC[C@H](O)C/C1=C/C=C1\CCC[C@]2(C)[C@@H]([C@H](C)/C=C/[C@H](C)C(C)C)CC[C@@H]12 [ERGOCALCIFEROL] | 28.81% |
| CCOc1ccc(Cc2nccc3cc(OCC)c(OCC)cc23)cc1OCC.Cl [ETHAVERINE HYDROCHLORIDE] | 156.2% |
| COC1=C[C@@H](C)[C@@H]2C[C@H]3OC(=O)C[C@H]4C(C)=C(OC)C(=O)[C@H]([C@@]2(C)C1=O)[C@@]34C [QUASSIN] | 100.5% |
| CN(C)CCOC(C)(c1ccccc1)c1ccccn1.O=C(O)CCC(=O)O (centres undefined) [DOXYLAMINE SUCCINATE] | 108.8% |
| O=C(CCCN1CC=C(n2c(=O)[nH]c3ccccc32)CC1)c1ccc(F)cc1 [DROPERIDOL] | 147.6% |
| C[C@H]1c2cccc(O)c2C(=O)C2=C(O)[C@]3(O)C(=O)C(C(N)=O)=C(O)[C@@H](N(C)C)[C@@H]3[C@@H](O)[C@@H]21.Cl [DOXYCYCLINE HYDROCHLORIDE] | 106% |
| O=P(O)(O)O.c1ccc(CN(CC2=NCCN2)c2ccccc2)cc1 [ANTAZOLINE PHOSPHATE] | 97.11% |
| CC(=O)Oc1c(C)c(C)c2c(c1C)CCC(C)(CCCC(C)CCCC(C)CCCC(C)C)O2 (stereo not drawn) [alpha-TOCHOPHERYL ACETATE] | 93.84% |
| Clc1ccccc1C(c1ccccc1)(c1ccccc1)n1ccnc1 [CLOTRIMAZOLE] | 105.9% |
| CC1=C(C(=O)O)N2C(=O)[C@@H](NC(=O)[C@H](N)C3=CCC=CC3)[C@H]2SC1 [CEPHRADINE] | 100.4% |
| OCCN(CCO)c1nc(N2CCCCC2)c2nc(N(CCO)CCO)nc(N3CCCCC3)c2n1 [DIPYRIDAMOLE] | 89.24% |
